Test results taken from patent publication US20260108513A1 (Pfizer Inc., priority 2022, published 2026).

Tested on: mCRPC patients
Assay: TALAPRO-2 Part 2: safety, adverse events and supportive care (safety population)
Format: in vivo, human
Conditions: talazoparib+enzalutamide group
Description: This population was the primary population for evaluating safety.
Treatment-emergent is defined as the time between the first dose of study treatment to 28 days after the last dose of the last study treatment, or before any new antineoplastic therapy, whichever occurs first.

## Cn1ncnc1[C@H]1c2n[nH]c(=O)c3cc(F)cc(c23)N[C@@H]1c1ccc(F)cc1 [talazoparib, (8S,9R)-5-fluoro-8-(4-fluorophenyl)-9-(1-methyl-1H-1,2,4-triazol-5-yl)-8,9-dihydro-2H-pyrido[4,3,2-de]phthalazin-3(7H)-one]
  median time to onset of first G≥3 anemia: 3.3 months
  recurrent G3-4 anemia: 20.6%
